Holding throughout (format): cell-based
One assay deals with Rhizoctonia solani. Nature of the assay: Rhizoctonia solani (rice sheath blight/potato black scurf) in vitro test, radial growth on Potato Dextrose Agar. Particulars: 168 h, 300 ppm, seven days, 25° C., read-out: % control compared to the untreated check (radial growth).
For another assay, the system named is Colletotrichum capsici. Nature of the assay: Colletotrichum capsici (anthracnose) in vitro test, radial growth on Potato Dextrose Agar. Particulars: Colletotrichum truncatum, 168 h; 300 ppm; seven days, 25° C.; read-out: % control compared to the untreated check (radial growth).
For the next assay, the system named is Pyricularia oryzae. Nature of the assay: microbe, parasite or virus in culture. The settings on record: 168 h, read-out: % control compared to the untreated check (radial growth).
The test system of another assay is Alternaria solani. Put plainly: Alternaria solani (early blight of tomato/potato) in vitro test, radial growth on Potato Dextrose Agar. The settings on record: 168 h, 300 ppm, seven days, 25° C., read-out: % control compared to the untreated check (radial growth).
In a further assay the test system is Botrytis cinerea. Put plainly: Botrytis cinerea (gray mold) in vitro test, radial growth on Potato Dextrose Agar. Particulars: 168 h, 300 ppm, seven days, 22° C., read-out: % (control) compared to the untreated check (radial growth).

This is an account of results in patent US11155517B2, “4-substituted phenylamine derivatives and their use to protect crops by fighting undesired phytopathogenic micoorganisms” (PI INDUSTRIES LTD., priority 2016, dated 2021).

On to `CCN(C)C=Nc1cc(C)c(Cc2cccc(C(C)C#N)c2)cc1C` (stereo not drawn) [Compound 107, N′-(4-(3-(1-cyanoethyl)benzyl)-2,5-dimethylphenyl)-N-ethyl-N-methylformimidamide], for which the inhibition of growth at 300 ppm is above 80% in the assay with Rhizoctonia solani; above 80% in the assay with Colletotrichum capsici; above 75% in the assay on Pyricularia oryzae; above 75% in the assay with Alternaria solani; above 80% in the assay with Botrytis cinerea.

For the compound `Cc1cc(N=CN(CC2CC2)C(C)C)c(C)cc1Cc1ccccc1F` [Compound 88, N-(cyclopropylmethyl)-N′-(4-(2-fluorobenzyl)-2,5-dimethylphenyl)-N-isopropylformimidamide], the inhibition of growth at 300 ppm with Rhizoctonia solani is above 80%; in the assay with Pyricularia oryzae it was above 75%; in the assay on Alternaria solani, above 75%; in the assay on Botrytis cinerea, above 80%.

`CCN(C)C=Nc1cc(C)c(Cc2cccc(C(F)(F)F)c2)cc1F` [Compound 205, N-ethyl-N′-(2-fluoro-5-methyl-4-(3-(trifluoromethyl)benzyl)phenyl)-N-methylformimidamide]: the inhibition of growth at 300 ppm was above 80% in the assay with Rhizoctonia solani, above 80% in the assay on Colletotrichum capsici, above 75% in the assay on Pyricularia oryzae and above 75% with Alternaria solani.

Consider `CCN(C)C=Nc1cc(C)c(Cc2ccccc2C#N)cc1Cl` [Compound 100, N′-(2-chloro-4-(2-cyanobenzyl)-5-methylphenyl)-N-ethyl-N-methylformimidamide], for which the inhibition of growth at 300 ppm with Rhizoctonia solani is above 80%; with Colletotrichum capsici, above 80%; with Pyricularia oryzae, above 75%; in the assay with Alternaria solani it was above 75%.

As for `CCN(C)C=Nc1cc(C)c(Cc2ccccc2C)cc1Cl` [Compound 122, N′-(2-chloro-5-methyl-4-(2-methylbenzyl)phenyl)-N-ethyl-N-methylformimidamide], the inhibition of growth at 300 ppm was above 80% in the assay with Rhizoctonia solani, above 80% with Colletotrichum capsici, above 75% in the assay on Pyricularia oryzae and above 75% with Alternaria solani.

Consider `CCN(C)C=Nc1cc(C)c(Cc2cc(Cl)cc(Cl)c2)cc1Cl` [Compound 21, N′-(2-chloro-4-(3,5-dichlorobenzyl)-5-methylphenyl)-N-ethyl-N-methylformimidamide], for which the inhibition of growth at 300 ppm with Rhizoctonia solani was above 80%; in the assay on Colletotrichum capsici it was above 80%; in the assay on Pyricularia oryzae, above 75%; with Alternaria solani, above 75%; in the assay on Botrytis cinerea, above 80%.

Take `CCN(C)C=Nc1cc(C)c(Cc2cccc(Cl)c2F)cc1Cl` [Compound 123, N′-(2-chloro-4-(3-chloro-2-fluorobenzyl)-5-methylphenyl)-N-ethyl-N-methylformimidamide]: the inhibition of growth at 300 ppm was above 80% with Rhizoctonia solani; above 80% in the assay with Colletotrichum capsici; above 75% with Pyricularia oryzae; above 75% in the assay with Alternaria solani; above 80% with Botrytis cinerea.

Take `CCN(C)C=Nc1cc(C)c(Cc2cccnc2)cc1Cl` [Compound 204, N′-(2-chloro-5-methyl-4-(pyridin-3-ylmethyl)phenyl)-N-ethyl-N-methylformimidamide]: the inhibition of growth at 300 ppm is above 80% with Rhizoctonia solani; above 80% in the assay with Colletotrichum capsici; above 75% in the assay with Pyricularia oryzae; above 75% in the assay with Alternaria solani; above 80% in the assay with Botrytis cinerea.

Take `CCN(C)C=Nc1cc(C#N)c(Cc2cccc(C)c2)cc1C` [Compound 251, N′-(5-cyano-2-methyl-4-(3-methylbenzyl)phenyl)-N-ethyl-N-methylformimidamide]: the inhibition of growth at 300 ppm in the assay on Rhizoctonia solani is above 80%; with Pyricularia oryzae it was above 75%; in the assay on Alternaria solani, above 75%; in the assay on Botrytis cinerea, above 80%.

As to `CCN(C)C=Nc1cc(C)c(C(C#N)c2ccccc2)cc1C` (stereo not drawn) [Compound 127, N′-(4-(cyano(phenyl)methyl)-2,5-dimethylphenyl)-N-ethyl-N-methylformimidamide], the inhibition of growth at 300 ppm in the assay with Rhizoctonia solani is above 80%; in the assay on Colletotrichum capsici it was above 80%; in the assay with Pyricularia oryzae, above 75%; in the assay with Alternaria solani it was above 75%.

With `CCN(C)C=Nc1cc(C(F)(F)F)c(Cc2cccc(C(F)(F)F)c2)cc1F` [Compound 232, N-ethyl-N′-(2-fluoro-5-(trifluoromethyl)-4-(3-(trifluoromethyl)benzyl)phenyl)-N-methylformimidamide], the inhibition of growth at 300 ppm was above 80% in the assay with Rhizoctonia solani, above 75% in the assay on Pyricularia oryzae, above 75% in the assay with Alternaria solani and above 80% in the assay on Botrytis cinerea.

As to `CCN(C)C=Nc1cc(C)c(Cc2cccc(OC(F)(F)F)c2)cc1Cl` [Compound 124, N′-(2-chloro-5-methyl-4-(3-(trifluoromethoxy)benzyl)phenyl)-N-ethyl-N-methylformimidamide], the inhibition of growth at 300 ppm was above 80% with Rhizoctonia solani; above 80% with Colletotrichum capsici; above 75% with Pyricularia oryzae; above 75% in the assay on Alternaria solani; above 80% in the assay with Botrytis cinerea.

Turning to `Cc1cc(N=CN(CC2CC2)C(C)C)c(C)cc1Cc1ccccc1Cl` [Compound 89, N′-(4-(2-chlorobenzyl)-2,5-dimethylphenyl)-N-(cyclopropylmethyl)-N-isopropylformimidamide], the inhibition of growth at 300 ppm in the assay on Rhizoctonia solani is above 80%; with Pyricularia oryzae it was above 75%; with Alternaria solani, above 75%; in the assay on Botrytis cinerea it was above 80%.

On to `Cc1cc(N=CN2CCCCC2)c(Cl)cc1Cc1cccc(F)c1` [Compound 39, N-(2-chloro-4-(3-fluorobenzyl)-5-methylphenyl)-1-(piperidin-1-yl)methanimine], for which the inhibition of growth at 300 ppm with Rhizoctonia solani is above 80%; with Colletotrichum capsici it was above 80%; with Pyricularia oryzae it was above 75%; with Alternaria solani it was above 75%.

Take `CCN(C)C=Nc1cc(Cl)c(Cc2cccc(Cl)c2)cc1Cl` [Compound 152, N′-(2,5-dichloro-4-(3-chlorobenzyl)phenyl)-N-ethyl-N-methylformimidamide]: the inhibition of growth at 300 ppm is above 80% in the assay with Rhizoctonia solani, above 75% in the assay with Pyricularia oryzae, above 75% in the assay with Alternaria solani and above 80% in the assay with Botrytis cinerea.

Take `CCN(C)C=Nc1cc(Cl)c(Cc2cccc(OC(F)(F)F)c2)cc1Cl` [Compound 182, N′-(2,5-dichloro-4-(3-(trifluoromethoxy)benzyl)phenyl)-N-ethyl-N-methylformimidamide]: the inhibition of growth at 300 ppm in the assay with Rhizoctonia solani was above 80%; in the assay on Pyricularia oryzae, above 75%; in the assay with Alternaria solani, above 75%; in the assay on Botrytis cinerea it was above 80%.

Turning to `CCN(C)C=Nc1cc(Cl)c(Cc2cccc(C)c2)cc1Cl` [Compound 141, N′-(2,5-dichloro-4-(3-methylbenzyl)phenyl)-N-ethyl-N-methylformimidamide], the inhibition of growth at 300 ppm in the assay with Rhizoctonia solani was above 80%; in the assay on Pyricularia oryzae, above 75%; in the assay with Alternaria solani it was above 75%; in the assay with Botrytis cinerea, above 80%.

Regarding `CCN(C)C=Nc1cc(C(F)(F)F)c(Cc2cccc(Cl)c2)cc1C1CC1` [Compound 265, N′-(4-(3-chlorobenzyl)-2-cyclopropyl-5-(trifluoromethyl)phenyl)-N-ethyl-N-methylformimidamide], the inhibition of growth at 300 ppm was above 80% in the assay on Rhizoctonia solani, above 75% in the assay with Pyricularia oryzae, above 75% with Alternaria solani and above 80% in the assay with Botrytis cinerea.

For `CCN(C)C=Nc1c(C)cc(Cc2ccc(C3CC3)cc2)c(C)c1C1CC1` [Compound 267, N′-(2-cyclopropyl-4-(4-cyclopropylbenzyl)-3,6-dimethylphenyl)-N-ethyl-N-methylformimidamide], the inhibition of growth at 300 ppm with Rhizoctonia solani was above 80%; with Pyricularia oryzae, above 75%; in the assay on Alternaria solani, above 75%; with Botrytis cinerea, above 80%.

Take `CCN(C)C=Nc1cc(C(F)(F)F)c(Cc2cccc(F)c2)cc1F` [Compound 230, N-ethyl-N′-(2-fluoro-4-(3-fluorobenzyl)-5-(trifluoromethyl)phenyl)-N-methylformimidamide]: the inhibition of growth at 300 ppm with Rhizoctonia solani is above 80%; in the assay on Pyricularia oryzae, above 75%; in the assay on Alternaria solani, above 75%; in the assay on Botrytis cinerea, above 80%.

As to `CCN(C)C=Nc1cc(Cl)c(Cc2ccccc2C)cc1Cl` [Compound 151, N′-(2,5-dichloro-4-(2-methylbenzyl)phenyl)-N-ethyl-N-methylformimidamide], the inhibition of growth at 300 ppm in the assay on Rhizoctonia solani is above 80%; in the assay on Pyricularia oryzae, above 75%; with Alternaria solani it was above 75%; in the assay with Botrytis cinerea, above 80%.

For `CCN(C)C=Nc1cc(C#N)c(Cc2ccccc2F)cc1C` [Compound 247, N′-(5-cyano-4-(2-fluorobenzyl)-2-methylphenyl)-N-ethyl-N-methylformimidamide], the inhibition of growth at 300 ppm in the assay on Rhizoctonia solani is above 80%; with Pyricularia oryzae, above 75%; with Alternaria solani it was above 75%; with Botrytis cinerea, above 80%.

On to `CCN(C)C=Nc1cc(C)c(Cc2c(F)cccc2F)cc1Cl` [Compound 203, N′-(2-chloro-4-(2,6-difluorobenzyl)-5-methylphenyl)-N-ethyl-N-methylformimidamide], for which the inhibition of growth at 300 ppm in the assay on Colletotrichum capsici was above 80%; in the assay with Pyricularia oryzae, above 75%; with Alternaria solani, above 75%.
